# “And” between values parts separate entries of the source, which are not always exact repeats. Equal entries are not always repeated.
# What was measured:
# [1] = system: Mus musculus; conditions: oral
# [2] = system: Rattus norvegicus; conditions: oral
# [3] = developmental, duration: 17 days, F, B6C3F1, Developmental: 42.5% reduced NK cell activity in male pups at 8 weeks of age
# [4] = reproduction developmental, duration: 17 days, F, CD1, Endocrine: Decreased total T4 on GD 6
# [5] = short-term, duration: 21 days, M, CD1, Body Weight: ~15% reduced body weight + Reproductive: ~17% reduced serum testosterone, ~38% reduced epididymal sperm count
# [6] = short-term, duration: 28 days, M, B6C3F1, Immunotoxicological: Suppressed response to sRBC (~60%)
# [7] = subchronic, duration: 60 days, M, Immunotoxicological: Impaired response to sRBC
# [8] = chronic, duration: 14 weeks, M, Sprague-Dawley, Hematological: 45% increase in non-segmented neutrophils
# [9] = chronic, duration: 104 weeks, F, Sprague-Dawley, Body Weight: 14% reduction in final body weight
# [10] = chronic, duration: 104 weeks, M, Sprague-Dawley, Hepatic: Hepatocellular hypertrophy at ?0.1 mg/kg/day / single cell necrosis and cystic degeneration at […]
# [11] = developmental, duration: 20 days, Sprague-Dawley, Developmental: Reduced serum T4 in pups at 1 mg/kg/day / approximately 60% survival at weaning versus 80% in controls at 2 mg/kg/day
# [12] = developmental, duration: 21 days, F, Sprague-Dawley, Developmental: ~30% increased locomotor activity and concurrent failure to habituate to test environment in male pups on PND 17
# [13] = reproduction developmental, duration: 19 days, F, Sprague-Dawley, Body Weight: Decreased mean body weight gain, 10% at 2 mg/kg/day and 33% at 5 mg/kg/day
# [14] = reproduction developmental, duration: 67 days, F, Sprague-Dawley, Body Weight: 22% reduction in body weight gain during premating / food consumption reduced […]
# [15] = reproduction developmental, duration: 84 days, M/F, Sprague-Dawley, Body Weight: >10% reduction in body weight
# [16] = short-term, duration: 28 days, F, Sprague-Dawley, Hematological: Decreased red blood cells (8.9%), hemoglobin (10%), hematocrit (8.8%)
# [17] = short-term, duration: 28 days, M/F, Sprague-Dawley, Endocrine: Decreased T4 level (82% in males / 48% in females)
smiles,measurement,setting,value
O=S(=O)([O-])C(F)(F)C(F)(F)C(F)(F)C(F)(F)C(F)(F)C(F)(F)C(F)(F)C(F)(F)F.[K+] [Potassium perfluorooctanesulfonate],LOAEL,"[1]; developmental, duration: 4 weeks, M, CD1, Developmental: Impaired retention of the task in the water maze test",3 mg/kg-day
same,LOAEL,"[1]; developmental, duration: 1 days, M, CD1, Developmental: 24% decreased total spontaneous activity at 2 months of age / no significant alteration at 4 months",0.75 mg/kg-day
same,LOAEL,"[1]; developmental, duration: 4 days, F, Developmental: 31% reduced percentage of live pups per litter on PND 15",4.5 mg/kg-day
same,LOAEL,"[1]; developmental, duration: 5 days, F, ICR, Developmental: 6.1% increased cleft palate and 12.7% reduced body weight in fetuses",50 mg/kg-day
same,NOAEL,"[1]; developmental, duration: 7 days, F, CD1",6 mg/kg-day
same,LOAEL,"[1]; developmental, duration: 7 days, F, CD1, Developmental: Decreased distance traveled in open field test at 3 months of age",6 mg/kg-day
same,LOAEL,"[1]; developmental, duration: 7 days, F, CD1, Developmental: Reduced body weight of pups on PNDs 4 and 8",6 mg/kg-day
same,LOAEL,[1]; [3],1 mg/kg-day
same,NOAEL,[1]; [3],0.1 mg/kg-day
same,NOAEL,"[1]; developmental, duration: 17 days, F, CD1, Developmental: Increased incidences of sternal defects at ?5 mg/kg/day / reduced percentage of live fetuses (9%) at 20 mg/kg/day",1 mg/kg-day
same,NOAEL,"[1]; developmental, duration: 17 days, F, CD1, Developmental: Peroxisome proliferation in fetal liver at ?5 mg/kg/day",5 mg/kg-day
same,LOAEL,"[1]; developmental, duration: 17 days, F, ICR, Body Weight: 35% reduced maternal body weight + Developmental: 89% increased cleft palate, 25% reduced body weight in fetuses",20 mg/kg-day
same,LOAEL,"[1]; developmental, duration: 18 days, F, ICR, Developmental: GDs 0-18: decreased survival (55.2%) at 10 mg/kg/day on PND 4, decreased neonatal BW, intracranial blood vessel dilatation, …",10 mg/kg-day
same,NOAEL,"[1]; developmental, duration: 18 days, F, ICR, Hepatic: 60% increased absolute liver weight at ?10 mg/kg/day",20 mg/kg-day
same,LOAEL,"[1]; developmental, duration: 21 days, F, Developmental: Decreased locomotion, muscle strength, and motor coordination in adult offspring",0.3 mg/kg-day
same,NOAEL,"[1]; reproduction developmental, duration: 5 days, F, ICR, […] increased maternal relative liver weight",50 mg/kg-day
same,NOAEL,"[1]; reproduction developmental, duration: 13 days, F, CD1, Endocrine: No alterations in serum T3 or T4 levels + Hepatic: 21% increase in absolute liver weight at ?3 mg/kg/day",6 mg/kg-day
same,LOAEL,[1]; [4],20 mg/kg-day
same,NOAEL,[1]; [4],15 mg/kg-day
same,NOAEL,"[1]; reproduction developmental, duration: 17 days, F, CD1, Increase in absolute and relative liver weight and decreased serum triglycerides at ?5 mg/kg/day",20 mg/kg-day
same,NOAEL,"[1]; short-term, duration: 14 days, M, CD1, Hepatic: ~70% increased absolute liver weight at ?5 mg/kg/day",10 mg/kg-day
same,LOAEL,[1]; [5],10 mg/kg-day
same,NOAEL,[1]; [5],5 mg/kg-day
same,NOAEL,"[1]; short-term, duration: 21 days, M, CD1, Hepatic: Increased absolute liver weight at ?5 mg/kg/day",10 mg/kg-day
same,LOAEL,[1]; [6],0.00166 mg/kg-day
same,NOAEL,[1]; [6],0.000166 mg/kg-day
same,LOAEL,[1]; [7],0.0833 mg/kg-day
same,NOAEL,[1]; [7],0.0083 mg/kg-day and 0.0167 mg/kg-day
same,LOAEL,"[2]; acute, duration: 1 days, F, Sprague-Dawley, Endocrine: Transient decrease in serum TT4 (24, 38, and 53% after 2, 6, and 24 hours, respectively)",15 mg/kg-day
same,NOAEL,"[2]; acute, duration: 1 days, M, Sprague-Dawley",10.3 mg/kg-day
same,NOAEL,"[2]; chronic, duration: 14 weeks, F, Sprague-Dawley, Immunotoxicological: No histological alterations + Neurological: No histological alterations",1.56 mg/kg-day
same,LOAEL,[2]; [8],1.33 mg/kg-day
same,NOAEL,[2]; [8],0.34 mg/kg-day
same,NOAEL,"[2]; chronic, duration: 14 weeks, M, Sprague-Dawley, Hepatic: Increased absolute and relative liver weight / increased serum ALT / hepatocyte hypertrophy and vacuolation at 1.33/1.55 mg/kg/…",1.33 mg/kg-day
same,LOAEL,[2]; [9],1.04 mg/kg-day
same,NOAEL,[2]; [9],0.25 mg/kg-day
same,NOAEL,"[2]; chronic, duration: 104 weeks, M/F, Sprague-Dawley, Immunotoxicological: No histological alterations + Neurological: No histological alterations + Reproductive: No histological alterations",1.04 mg/kg-day
same,LOAEL,[2]; [10],1.04 mg/kg-day
same,NOAEL,[2]; [10],0.25 mg/kg-day
same,LOAEL,"[2]; chronic, duration: 91 days, M, Sprague-Dawley, Endocrine: 42% decrease in total T4 levels",0.27 mg/kg-day
same,LOAEL,"[2]; developmental, duration: 2 days, F, Sprague-Dawley, Developmental: Decreased neonatal survival (82% of controls on PND 1)",25 mg/kg-day
same,LOAEL,"[2]; developmental, duration: 2 days, F, Sprague-Dawley, Developmental: Increased neonatal mortality",25 mg/kg-day
same,LOAEL,"[2]; developmental, duration: 4 days, Sprague-Dawley, Body Weight: Weight loss during treatment when treated on GDs 2-5 (22%) or 6-9 (17%) + Developmental: Decreased neonatal survival (90% …",25 mg/kg-day
same,LOAEL,"[2]; developmental, duration: 19 days, F, Sprague-Dawley, Developmental: Increased incidences of cleft palate",10 mg/kg-day
same,LOAEL,[2]; [11],2 mg/kg-day
same,NOAEL,[2]; [11],1 mg/kg-day
same,NOAEL,"[2]; developmental, duration: 21 days, F, Sprague-Dawley",1 mg/kg-day
same,LOAEL,"[2]; developmental, duration: 21 days, F, Sprague-Dawley, Developmental: 2.1-fold increased fetal thyroid cell proliferation on GD 20",1 mg/kg-day
same,LOAEL,[2]; [12],1 mg/kg-day
same,NOAEL,[2]; [12],0.3 mg/kg-day
same,LOAEL,"[2]; developmental, duration: 67 days, F, Sprague-Dawley, >10% decrease in mean pup weight per litter on PND 5 at ?0.4 mg/kg/day / ~50% decrease mean pup survival per litter on PND 5 at ?1.6 mg/kg/…",1.6 mg/kg-day
same,LOAEL,"[2]; developmental, duration: 67 days, F, Sprague-Dawley, Developmental: >10% decrease in mean pup weight per litter on PND 5 at ?0.4 mg/kg/day / ~50% decrease mean pup survival per litter on PND 5…",0.4 mg/kg-day
same,NOAEL,"[2]; developmental, duration: 84 days, M/F, Sprague-Dawley, Developmental: Delayed eye opening and transient decrease in F2 pup body weight (13%) on LDs 7-14 at ?0.4 mg/kg/day / decreased pup …",0.1 mg/kg-day
same,LOAEL,"[2]; developmental, duration: 90 days, F, Sprague-Dawley, Increased pup mortality during PNDs 1-4",1.6 mg/kg-day
same,LOAEL,"[2]; developmental, duration: 91 days, F, Sprague-Dawley, Developmental: 19-36% reduced serum T4 levels in pups on PNDs 21-35 after gestationand/or postnatal-only exposure",3.2 mg/kg-day
same,NOAEL,"[2]; reproduction developmental, duration: 19 days, F, Sprague-Dawley",10 mg/kg-day
same,LOAEL,[2]; [13],2 mg/kg-day
same,NOAEL,[2]; [13],1 mg/kg-day
same,LOAEL,"[2]; reproduction developmental, duration: 19 days, F, Sprague-Dawley, Endocrine: Reduced total and free T4 and T3",1 mg/kg-day
same,LOAEL,[2]; [14],2 mg/kg-day
same,NOAEL,[2]; [14],1.6 mg/kg-day
same,LOAEL,[2]; [15],3.2 mg/kg-day
same,NOAEL,[2]; [15],1.6 mg/kg-day
same,NOAEL,"[2]; reproduction developmental, duration: 84 days, M/F, Sprague-Dawley, Reproductive: No alterations in mating and fertility parameters",3.2 mg/kg-day
same,NOAEL,"[2]; short-term, duration: 4 weeks, F, Sprague-Dawley, Immunotoxicological: No histological alterations + Neurological: No histological alterations",1.77 mg/kg-day
same,NOAEL,"[2]; short-term, duration: 4 weeks, M, Sprague-Dawley, Reproductive: No histological alterations",1.51 mg/kg-day
same,NOAEL,"[2]; short-term, duration: 7 days, M, Sprague-Dawley, Hepatic: Decreased serum cholesterol (38%) and triglyceride (55%) levels at 8.17 mg/kg/day",8.17 mg/kg-day
same,NOAEL,"[2]; short-term, duration: 7 days, M, Sprague-Dawley, Hepatic: Hepatocellular hypertrophy, increased liver weight, decreased serum cholesterol at ?1.79 mg/kg/day",8.96 mg/kg-day
same,NOAEL,"[2]; short-term, duration: 7 days, M, Wistar, Hepatic: 40% increase in absolute liver weight",15 mg/kg-day
same,LOAEL,[2]; [16],7.01 mg/kg-day
same,NOAEL,[2]; [16],3.47 mg/kg-day
same,LOAEL,[2]; [17],1.23 mg/kg-day
same,NOAEL,[2]; [17],0.14 mg/kg-day
same,NOAEL,"[2]; short-term, duration: 28 days, M, Sprague-Dawley, Hepatic: Hepatocellular hypertrophy and decreased serum cholesterol levels at ?1.54 mg/kg/day",7.34 mg/kg-day
same,NOAEL,"[2]; short-term, duration: 28 days, M, Sprague-Dawley, Hepatic: Increased relative liver weight / hepatocellular hypertrophy in males at 5.89 mg/kg/day",5.89 mg/kg-day
same,NOAEL,"[2]; subchronic, duration: 67 days, F, Sprague-Dawley, Hepatic: 16% reduction in serum total cholesterol on PND 5 at ?0.4 mg/kg/day / increased liver weight in dams at ?0.8 mg/kg/day + …",2 mg/kg-day

# Reference: EPA's ToxValDB 9.5
